The text below walks through data of patent publication US7842808B2, “Anti-migraine spirocycles” (Bristol-Myers Squibb Company, priority 2002, dated 2010).

For orientation: pIC50 means the IC50 on a negative log10 scale, so that one unit is a factor of ten.

pIC50: −log10 of the molar value. Some results are limits rather than exact numbers.

This assay deals with T1, CGRP receptor (SK-N-MC cell membranes) (Homo sapiens, UniProt O60894+Q16602).
T1 construct: endogenous in cells; host or cells: SK-N-MC cells (membrane homogenate)
T1 sequence (Q16602 23-461): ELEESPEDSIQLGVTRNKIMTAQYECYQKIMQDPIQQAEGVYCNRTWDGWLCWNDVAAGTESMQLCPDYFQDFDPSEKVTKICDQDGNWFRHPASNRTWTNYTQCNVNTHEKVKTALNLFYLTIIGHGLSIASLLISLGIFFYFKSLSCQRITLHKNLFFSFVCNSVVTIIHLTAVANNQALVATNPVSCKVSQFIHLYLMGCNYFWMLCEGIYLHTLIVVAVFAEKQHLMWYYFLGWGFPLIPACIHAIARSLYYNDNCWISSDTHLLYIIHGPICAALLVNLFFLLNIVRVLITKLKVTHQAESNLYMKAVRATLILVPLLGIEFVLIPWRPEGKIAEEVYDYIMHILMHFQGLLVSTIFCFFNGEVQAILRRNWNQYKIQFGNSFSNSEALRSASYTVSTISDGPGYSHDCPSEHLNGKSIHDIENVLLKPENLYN
T1 sequence (O60894 27-148): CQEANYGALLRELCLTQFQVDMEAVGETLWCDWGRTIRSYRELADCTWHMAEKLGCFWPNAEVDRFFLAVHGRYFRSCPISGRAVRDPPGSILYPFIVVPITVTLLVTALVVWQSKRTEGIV
Kind of assay: CGRP Binding Assay ([125I]-CGRP radioligand binding, SK-N-MC homogenate). To be noted: displacement of [125I]-CGRP, SK-N-MC homogenate; read-out: CGRP binding IC50. (Displacement assays read how much labelled ligand stays bound in the presence of the test substance.)
`Cc1cc(CC(NC(=O)N2CCC(N3Cc4ccccc4NC3=O)CC2)C(=O)OC2CCN(C)CC2)cc2cn[nH]c12` (centres unmarked) [Example 41c, 3-(7-Methyl-1H-indazol-5-yl)-2-{[4-(2-oxo-1,4-dihydro-2H-quinazolin-3-yl)-piperidine-1-carbonyl]-amino}-propionic acid 1-methyl-piperidin-4-yl ester]: the pIC50 is more than 8.00.

Regarding `COc1cccc(NC(=O)N[C@@H](CC(=O)N2CCC(N3Cc4ccccc4NC3=O)CC2)C(=O)N2CCC(N3CCCCC3)CC2)c1` [Example 150], the pIC50 was 7.00 to 8.00.

On to `O=C(C[C@H](Nc1ccc2[nH]ncc2c1)C(=O)N1CCC(N2CCCCC2)CC1)N1CCC(N2Cc3ccccc3NC2=O)CC1` (racemic) [Example 201, (±)-1-[1,4′]Bipiperidinyl-1′-yl-2-(1H-indazol-5-ylamino)-4-[4-(2-oxo-1,4-dihydro-2H-quinazolin-3-yl)-piperidin-1-yl]-butane-1,4-dione], for which the pIC50 is 6.00 to 7.00.

As for `O=C(N[C@@H](CC(=O)N1CCC(N2Cc3ccccc3NC2=O)CC1)C(=O)N1CCC(N2CCCCC2)CC1)Oc1ccc(F)cc1` [Example 131], the pIC50 is 6.00 to 7.00.

With `COC(=O)c1cccc(NC(=O)N[C@@H](CC(=O)N2CCC(N3Cc4ccccc4NC3=O)CC2)C(=O)N2CCC(N3CCCCC3)CC2)c1` [Example 196], the negative logarithm of the IC50 (pIC50) is 7.00 to 8.00.

As to `O=C(Nc1cc(F)ccc1F)N[C@@H](CC(=O)N1CCC(N2Cc3ccccc3NC2=O)CC1)C(=O)N1CCC(N2CCCCC2)CC1` [Example 184], the pIC50 is 7.00 to 8.00.

In the case of `O=C(N[C@@H](CC(=O)N1CCC(N2Cc3ccccc3NC2=O)CC1)C(=O)N1CCC(N2CCCCC2)CC1)N[C@@H]1C[C@H]1c1ccccc1` [Example 154], the pIC50 was 6.00 to 7.00.

`CCOc1ccccc1NC(=O)N[C@@H](CC(=O)N1CCC(N2Cc3ccccc3NC2=O)CC1)C(=O)N1CCC(N2CCCCC2)CC1` [Example 175]: the negative-log IC50 (pIC50) is 6.00 to 7.00.

On to `CCOc1ccc(NC(=O)N[C@@H](CC(=O)N2CCC(N3Cc4ccccc4NC3=O)CC2)C(=O)N2CCC(N3CCCCC3)CC2)cc1` [Example 189], for which the negative logarithm of the IC50 (pIC50) is 6.00 to 7.00.

Turning to `O=C(N[C@@H](CC(=O)N1CCC(N2Cc3ccccc3NC2=O)CC1)C(=O)N1CCC(N2CCCCC2)CC1)c1cccc([N+](=O)[O-])c1` [Example 113], the pIC50 is 6.00 to 7.00.

For the molecule `O=C(C[C@H](Nc1ccncn1)C(=O)N1CCC(N2CCCCC2)CC1)N1CCC(N2Cc3ccccc3NC2=O)CC1` [Example 96, (L)-1-[1,4′]Bipiperidinyl-1′-yl-4-[4-(2-oxo-1,4-dihydro-2H-quinazolin-3-yl)-piperidin-1-yl]-2-(pyrimidin-4-ylamino)-butane-1,4-dione], the pIC50 is less than 6.00.

`O=C(COc1ccc(Cl)cc1)N[C@@H](CC(=O)N1CCC(N2Cc3ccccc3NC2=O)CC1)C(=O)N1CCC(N2CCCCC2)CC1` [Example 112]: the pIC50 is 6.00 to 7.00.

Regarding `COC(=O)C(CC(=O)N1CCC2(CC1)OC(=O)Nc1ccccc12)Cc1cc(C)c2[nH]ncc2c1` (racemic) [Example 66, (±)-2-(7-Methyl-1H-indazol-5-ylmethyl)-4-oxo-4-[1′,2′-dihydro-2′-oxospiro-[4H-3′,1-benzoxazine-4,4′-piperidinyl]-butyric acid methyl ester], the pIC50 is 6.00 to 7.00.

In the case of `O=C(NCCc1cccs1)N[C@@H](CC(=O)N1CCC(N2Cc3ccccc3NC2=O)CC1)C(=O)N1CCC(N2CCCCC2)CC1` [Example 169], the pIC50 was 6.00 to 7.00.

Take `O=C(C[C@H](NC1CCC(O)CC1)C(=O)N1CCC(N2CCCCC2)CC1)N1CCC(N2Cc3ccccc3NC2=O)CC1` (some centres unmarked) [Example 97, (L)-1-[1,4′]Bipiperidinyl-1′-yl-2-(4-hydroxy-cyclohexylamino)-4-[4-(2-oxo-1,4-dihydro-2H-quinazolin-3-yl)-piperidin-1-yl]-butane-1,4-dione]: the pIC50 is less than 6.00.

As for `Cc1cc(Br)ccc1NC(=O)N[C@@H](CC(=O)N1CCC(N2Cc3ccccc3NC2=O)CC1)C(=O)N1CCC(N2CCCCC2)CC1` [Example 194], the negative logarithm of the IC50 (pIC50) was 6.00 to 7.00.

Consider `O=C(NCCc1ccccc1)N[C@@H](CC(=O)N1CCC(N2Cc3ccccc3NC2=O)CC1)C(=O)N1CCC(N2CCCCC2)CC1` [Example 138], for which the pIC50 is 6.00 to 7.00.

On to `Cc1cccc(NC(=O)N[C@@H](CC(=O)N2CCC(N3Cc4ccccc4NC3=O)CC2)C(=O)N2CCC(N3CCCCC3)CC2)c1C` [Example 151], for which the pIC50 is 6.00 to 7.00.

Regarding `CCCNC(=O)N[C@@H](CC(=O)N1CCC(N2Cc3ccccc3NC2=O)CC1)C(=O)N1CCC(N2CCCCC2)CC1` [Example 183], the pIC50 was 6.00 to 7.00.

On to `O=C(NC(Cc1ccc2[nH]ncc2c1)C(=O)N1CCN(Cc2ccc[nH]2)CC1)N1CCC(N2Cc3ccccc3NC2=O)CC1` (centres unmarked) [Example 40g], for which the pIC50 was less than 6.00.

For the molecule `CC(C)(C)OC(=O)N[C@@H](CC(=O)N1CCC(N2Cc3ccccc3NC2=O)CC1)C(=O)N1CCC(N2CCCCC2)CC1` [Example 85, (L)-{1-([1,4′]Bipiperidinyl-1′-carbonyl)-3-oxo-3-[4-(2-oxo-1,4-dihydro-2H-quinazolin-3-yl)-piperidin-1-yl]-propyl}-carbamic acid tert-butyl ester], the pIC50 is 6.00 to 7.00.

In the case of `O=C(N[C@@H](CC(=O)N1CCC(N2Cc3ccccc3NC2=O)CC1)C(=O)N1CCC(N2CCCCC2)CC1)[C@@H]1C[C@H]1c1ccccc1` [Example 104], the negative logarithm of the IC50 (pIC50) was 6.00 to 7.00.

Turning to `O=C(N[C@@H](CC(=O)N1CCC(N2Cc3ccccc3NC2=O)CC1)C(=O)N1CCC(N2CCCCC2)CC1)c1ccc([N+](=O)[O-])o1` [Example 124], the pIC50 is 6.00 to 7.00.

Turning to `COc1cc(C(=O)N[C@@H](CC(=O)N2CCC(N3Cc4ccccc4NC3=O)CC2)C(=O)N2CCC(N3CCCCC3)CC2)cc(OC)c1OC` [Example 128], the pIC50 is 6.00 to 7.00.

`O=C(N[C@H](Cc1ccc2nn[nH]c2c1)C(=O)N1CCC(N2CCCCC2)CC1)N1CCC(N2Cc3ccccc3NC2=O)CC1` [Example 49, (R)-4-(2-Oxo-1,4-dihydro-2H-quinazolin-3-yl)-piperidine-1-carboxylic acid[1-(1H-benzotriazol-5-ylmethyl)-2-[1,4′]bipiperidinyl-1′-yl-2-oxo-ethyl]-amide]: the negative logarithm of the IC50 (pIC50) is more than 8.00.

With `COC(=O)[C@@H](Cc1ccc2[nH]nnc2c1)NC(=O)N1CCC(N2Cc3ccccc3NC2=O)CC1` [Example 48, (R)-3-(1H-Benzotriazol-5-yl)-2-{[4-(2-oxo-1,4-dihydro-2H-quinazolin-3-yl)-piperidine-1-carbonyl]-amino}-propionic acid methyl ester], the pIC50 is less than 6.00.

On to `COc1ncc(CC(NC(=O)N2CCC(N3Cc4ccccc4NC3=O)CC2)C(=O)N2CCC(N3CCCCC3)CC2)cn1` (racemic) [Example 58, (±)-4-(2-Oxo-1,4-dihydro-2H-quinazolin-3-yl)-piperidine-1-carboxylic acid[2-[1,4′]bipiperidinyl-1′-yl-1-(2-methoxy-pyrimidin-5-ylmethyl)-2-oxo-ethyl]-amide], for which the pIC50 is less than 6.00.

For `O=C(Nc1cccc(Cl)c1)N[C@@H](CC(=O)N1CCC(N2Cc3ccccc3NC2=O)CC1)C(=O)N1CCC(N2CCCCC2)CC1` [Example 178], the pIC50 was 7.00 to 8.00.

For the molecule `CC(NC(=O)N[C@@H](CC(=O)N1CCC(N2Cc3ccccc3NC2=O)CC1)C(=O)N1CCC(N2CCCCC2)CC1)c1cccc2ccccc12` (some centres unmarked) [Example 199], the pIC50 was 7.00 to 8.00.
